Assay results from a melting point compilation (Tetko et al.; mined from patent text by program, amines drawn as free bases though some values may be those of a salt).

First: O=C1NC(=O)C(c2cc(Cl)ccc2S(=O)(=O)Cl)N1 (stereo not given)
Second: Cc1n[nH]c(-c2cc(Cl)ccc2N)n1
The melting point of the first is higher: 211 to 212 °C for the first, 190 to 195 °C for the second.

Compared with `Cc1cc(C(F)(F)F)nn1CC(=O)N1CCC(c2nc(NC(=O)C3=C(O)CCCC3=O)cs2)CC1`, `CC(C)c1nn(-c2ccc(C(F)(F)F)cn2)cc1CCCOc1nn(C2CCCCC2)cc1CC(=O)O` is higher in melting point: 102 to 105 °C for the first, 116 to 117 °C for the second.

First: CN(Cc1ccccc1)C(=O)Nc1ccc(CN2C(=O)C3CCCC3N(C(=O)CN3C(=O)c4ccccc4C3=O)c3ccccc32)cc1 (stereo not given)
Second: O=C(c1ccc(Cl)cc1)c1c(N2C(=O)c3ccccc3C2=O)sc(Br)c1CN1CCN(c2ccccc2)CC1
The melting point of the first is lower: 156 to 158 °C for the first, 186 to 193 °C for the second.

First: CC(C)N1C(=O)c2ccccc2N(C(=O)CCl)S1(=O)=O
Second: CC(C)C(NS(=O)(=O)c1ccccc1)C(=O)NO (stereo not given)
The melting point of the first is lower: 133 to 135 °C for the first, 154 to 155 °C for the second.

First: COc1cccc(OC)c1C(=O)Nc1ccc(OCCN2CCCCC2)cc1
Second: COC(=O)c1ccc2cc(-c3ccc(OC)cc3)oc2c1
The melting point of the first is lower: 114 to 118 °C for the first, 163 to 164 °C for the second.

First: COc1cc([N+](=O)[O-])c2nccc(C)c2c1OCCCCCc1ccccc1
Second: Cc1ccc(OCc2ccccc2)c2[nH]c(CCc3ccccc3)nc12
The melting point of the first is lower: 47 to 50 °C for the first, 203 to 204 °C for the second.

First: CC(C)(C)OC(=O)c1ccccc1-c1ccc(CBr)cc1
Second: CCCC(=O)N(Cc1ccc(-c2ccccc2-c2nnn[nH]2)cc1)C(C)(C)C(=O)O
The melting point of the first is lower: 98 to 101 °C for the first, 187 to 189 °C for the second.

First: CCCC12CCC(c3ccc(Cl)cc3)(OC1)OC2
Second: O=C(NCc1ccc(Cl)cc1)c1ccccc1S
The melting point of the first is lower: 94 °C for the first, 131 to 132 °C for the second.

Compared with `CCc1nc2c(-c3ccc(Cl)cc3Cl)nccn2c1C(C)O` (stereo not given), `CC(C)N(CC(O)(Cn1cncn1)c1ccc(Cl)cc1Cl)S(C)(=O)=O` (stereo not given) is lower in melting point: 165 to 166 °C for the first, 132 to 133 °C for the second.

First: CC(C)CN1C(=O)C(CC(=O)O)OC(C)(c2ccccc2Cl)c2cc(Cl)ccc21 (stereo not given)
Second: C[C@H](O)C(=O)Nc1c(C(=O)c2ccccc2)[nH]c2cc(Cl)ccc12
The melting point of the first is lower: 153 to 154 °C for the first, 185 to 190 °C for the second.

First: CN1CCN(c2ccc(C(=O)NC3(C(=O)NCC#N)CCCCC3)cc2)CC1
Second: COC(=O)CCc1ccc(N2CCN(c3ccc(C#N)cc3)C2=O)cc1
The melting point of the first is higher: 218 to 220 °C for the first, 160 to 162 °C for the second.

First: CSc1ccc(C=CC(=O)C=Cc2ccc(SC)cc2)cc1
Second: N=C(NC=Cc1ccc([N+](=O)[O-])cc1)c1ccccc1
The melting point of the first is lower: 143 to 145 °C for the first, 163 to 165 °C for the second.

Compared with `CCCCCc1c(C(C)C)nc(C(C)C)c(CCO)c1-c1ccc(F)cc1`, `CCCC=Cc1c(C(C)C)nc(C(C)C)c(C(=O)OCC)c1-c1ccc(CC)cc1` is lower in melting point: 81 to 83 °C for the first, 67 to 68 °C for the second.

First: CCOC(=O)/C(=N\OCC(=O)N1CCCCC1)c1csc(N)n1
Second: Cc1nc(N2CCN(CC3CC3)C2=O)sc1C(=O)NCc1ccccc1
The melting point of the first is higher: 151 to 152 °C for the first, 142 to 143 °C for the second.

First: CC(=O)NC[C@H]1CN(c2ccc(N3C[C@H]4CN(C(=O)c5cc6ccccc6[nH]5)C[C@H]4C3)c(F)c2)C(=O)O1
Second: O=C(O)Cn1c(=O)c(=O)[nH]c2ccc3ccc(-n4ccc(CN5CCc6ccccc6C5)c4)cc3c21
The melting point of the first is lower: 211 °C for the first, greater than 250 °C for the second.

Compared with `Clc1ccc(COC(CNc2ccc(Cl)c(Cl)c2)Cn2ccnc2)cc1` (stereo not given), `O=c1cc2c(nn1-c1ccc(Cl)cc1)-c1cnccc1CC2` is higher in melting point: 102 to 103 °C for the first, 166 to 168 °C for the second.

First: O=CCCCOC(c1ccccc1)(c1ccccc1)c1ccccc1
Second: COc1ccc(-n2c(=O)c(-c3ccccc3)nc3ccccc32)cc1
The melting point of the first is lower: 62 to 65 °C for the first, 199 to 202 °C for the second.

First: CC(C)(C)c1cccc(S(=O)(=O)n2c(Cc3ccc(C(=O)O)cc3F)cc3cc(C(F)(F)F)ccc32)c1
Second: COC(=O)CCc1cc2cc(Cl)ccc2n1S(=O)(=O)c1ccc2c(c1)OCO2
The melting point of the first is higher: 177 °C for the first, 122 to 129 °C for the second.

`COCCCOc1ccc(/C=C/C(=O)O)c(Oc2ncc(C(F)(F)F)cc2Cl)c1` and `COc1cccc(C(=O)c2ccc(OC)c(C(=O)O)c2)c1` cannot be ordered by melting point: 131 to 133 °C for the first, 132 °C for the second.

First: CCCCCC(C)C(C)c1cc(O)c2c(c1)OC(C)(C)c1ccncc1-2 (stereo not given)
Second: Cc1c(C)c2c(c(C)c1NCc1ccc3c(c1)OCO3)C(c1ccc(C(C)C)cc1)C(C)(C)O2 (stereo not given)
The melting point of the first is higher: 155 to 157 °C for the first, 100 to 102 °C for the second.

First: COC(=O)c1ccc2c(OC)ccnc2c1
Second: CCC(=O)c1ccc(OC)c(OC(C)C)c1
The melting point of the first is higher: 147 to 148 °C for the first, 58.1 to 58.7 °C for the second.

Compared with `CC(C(N)=O)c1ccc2c(c1Cl)C(=O)Cc1ccccc1S2` (stereo not given), `COC(=O)C1=C(C)Nc2ccccc2SC1c1cccc(Cl)c1Cl` (stereo not given) is higher in melting point: 180 to 181 °C for the first, 190 to 191 °C for the second.

Compared with `CCn1c(SCc2ccccn2)nc2ccccc2c1=O`, `COc1nc2ccc(Br)cc2c2c1C(=O)c1ccccc1-2` is higher in melting point: 110 to 111 °C for the first, 208 to 210 °C for the second.

First: CCN1CCN(c2c(F)cc3c(=O)c(C(=O)O)cn(C4CC4)c3c2C#N)CC1
Second: N#Cc1cc2c(cc1F)S(=O)(=O)NCN2C1CC1
The melting point of the first is higher: greater than 300 °C for the first, 208 to 210 °C for the second.

First: Cc1c(N=C2NCCN2)cc(Br)cc1NS(C)(=O)=O
Second: CC1(C)CCc2[nH]cc(C(=O)Nc3ccc4c(c3)OCO4)c2C1=O
The melting point of the first is higher: 262 °C for the first, 251 to 252 °C for the second.

Going from `CON(Cc1ccc(NC(C)=O)cc1)C(=O)C1=C(O)C(=O)N(C)C1` to `CCOC(=O)Cc1ccc(SCc2ccc(NC(C)=O)cc2C(=O)O)cc1`, the melting point rises from 110 °C to 170 °C.

First: CCOC(=O)CNC(=O)Nc1ccc(OC)cc1F
Second: CCCC(=O)Cc1cc(OC)ccc1NC(=O)OC(C)(C)C
The melting point of the first is higher: 158 to 159 °C for the first, 77 to 78 °C for the second.

First: COc1cccc(CC(=O)O)c1OCCCc1cn(-c2ccc(NS(C)(=O)=O)cn2)nc1C(C)C
Second: O=C(O)Cc1cccc2c1N=C(c1ccccc1)CC2=O
The melting point of the first is lower: 176 to 177 °C for the first, 238 to 240 °C for the second.

First: O=C(NCc1ncccn1)c1cnc(N2CCC[C@H]2CO)nc1NCc1cccc(Cl)c1
Second: CCCCc1nc2c(N)nc3ccc(OCc4ccccc4)cc3c2n1CCCCNC(=O)N1CCOCC1
The melting point of the first is lower: 153 to 156 °C for the first, 177 to 179 °C for the second.

First: COc1ccc(-c2[nH]nc3c2C(=O)c2c(NC(=O)C4CC4)cccc2-3)cc1
Second: Cc1nc(-c2ccc(-c3cnc4[nH]c(=O)n(CCN5CCCC5=O)c4n3)cc2)n[nH]1
The melting point of the first is lower: 289 °C for the first, 315 to 316 °C for the second.

Compared with `CCOC(=O)c1ccc(NC(=O)C(COS(C)(=O)=O)NS(=O)(=O)c2ccc(Cl)cc2)cc1` (racemic), `CC(=NOCCO)c1ccc(N(C)S(=O)(=O)c2ccccc2)cc1` is lower in melting point: 153 to 158 °C for the first, 76 to 77 °C for the second.

Compared with `CCCCc1nnc2n1-c1sc3c(c1C(c1ccccc1Cl)=NC2)CCNC3`, `CCCc1nnc2n1-c1ccc(Cl)cc1C(c1ccccc1)=NC2` is lower in melting point: 224 °C for the first, 176 °C for the second.

First: C=CS(=O)(=O)NCCCc1ccc(-c2ccc(=O)[nH]n2)cc1
Second: CCCCCCCCc1cnc(-c2ccc(C#N)cc2)nc1
The melting point of the first is higher: 166 to 168 °C for the first, 66.1 to 66.5 °C for the second.

First: O=C(O)c1cc(Cl)cc2c1O[C@@H]1C=CCC[C@H]21 (relative stereo)
Second: Cc1cc(=O)c(OCc2ccccc2)c(C(=O)O)o1
The melting point of the first is lower: 147 to 150 °C for the first, 173 to 175 °C for the second.

First: O=C(O)CCC(=NO)c1ccc(-c2ccc(Cl)s2)cc1
Second: COC(=O)CCC(=O)c1ccc(F)cc1
The melting point of the first is higher: 172 to 174 °C for the first, 48 to 50 °C for the second.

First: CCCCOC(=O)CS(=O)(=O)C=C1SC=CS1
Second: CCCCOCCOc1ccc(-c2ccc3c(c2)C=C(C(=O)O)CCN3S(C)(=O)=O)cc1
The melting point of the first is lower: 87 to 88 °C for the first, 208 to 210 °C for the second.

First: CC1(C)C2CC[C@@]1(N1CCCCC1)C(=O)C2
Second: NS(=O)(=O)c1cccc(C2(O)CCCCC2)c1
The melting point of the first is lower: 78 to 79 °C for the first, 172 to 176 °C for the second.

First: CC(=O)c1ccc2c(c1)ncn2-c1cccc(-n2ccnc2)c1
Second: COc1ccc(C(=O)c2ccccc2)cc1COc1ccc(Cl)cc1
The melting point of the first is higher: 205 to 206 °C for the first, 103 °C for the second.

Compared with `FC(F)Oc1cccc(C=C2c3ccccc3CCc3ccccc32)c1`, `Cc1cccc(NC(=O)NC2CN(C(=O)C(C)C)c3ccccc3N(CC(=O)c3ccccc3C)C2=O)c1` (stereo not given) is higher in melting point: 91.3 °C for the first, 174 to 176 °C for the second.

First: NS(=O)(=O)c1cccc(C2(O)CCC2)c1
Second: c1ccc(C2(Oc3ccccn3)CCNCC2)cc1
The melting point of the first is higher: 155 to 157 °C for the first, 86 to 87 °C for the second.

First: Cc1cnc2c(c1C)CCCC2C(N)=S (stereo not given)
Second: Cc1oncc1C(=O)Nc1ccc(-n2nc(C3CC3)cc2C2CC2)cc1
The melting point of the first is higher: 163 to 165 °C for the first, 153 to 158 °C for the second.

First: CN(C)C=Nc1nc(=O)n(-c2ccsc2)cc1F
Second: CN(C)C(=O)C(C#N)=Cc1cc(O)c(O)c([N+](=O)[O-])c1
The melting point of the first is higher: 211 to 213 °C for the first, 183 to 185 °C for the second.

Compared with `Cn1ncnc1COc1nn2c(C3CC3)nncc2c1-c1ccccc1F`, `CCCc1nn(C)c2c1N=C(c1cc(C(=O)O)ccc1OCC)NC2` is higher in melting point: 97 to 99 °C for the first, 285 to 288 °C for the second.

`C=CC(=O)OCCc1cc(=O)c(OCc2ccccc2)c(C(=O)c2ccc(Cc3ccc(F)cc3)o2)o1` and `C[C@@H](N(CC(=O)O)C(=O)c1ccc(OC(F)(F)F)cc1)[C@](O)(Cn1cncn1)c1ccc(F)cc1F` (relative stereo) cannot be ordered by melting point: 104 to 106 °C for the first, 99 to 105 °C for the second.

Compared with `CC(C)(C)C(=O)CC(=O)c1cccc(C(=O)CC(=O)C(C)(C)C)c1`, `COC(=O)C1=C(C)NC(C)=C(C(=O)OC)C1c1ccccc1CC(OC)OC` is higher in melting point: 106 to 108 °C for the first, 113 to 114 °C for the second.

First: CNc1nc(C)c(-c2ccnc(Nc3ccc(Cl)c(CO)c3)n2)s1
Second: COc1ccc2cc(Oc3cnc(N)nc3N)c(C(C)C)cc2c1
The melting point of the first is higher: 191 to 193 °C for the first, 170 to 172 °C for the second.

Compared with `Clc1nc(OC(Cl)(Cl)Cl)cc(C(Cl)(Cl)Cl)n1`, `N#Cc1nc(Cl)ccc1N` is higher in melting point: 67 to 69 °C for the first, 162 to 165 °C for the second.

First: C[C@H](Oc1c(I)c(C(=O)NC(CO)CO)c(I)c(C(=O)NC(CO)CO)c1I)C(N)=O
Second: COC(=O)C(CCSC)c1nc(C)nc2c1nnn2-c1ccc(C(C)C)cc1Br (stereo not given)
The melting point of the first is lower: 110 °C for the first, 135 to 137 °C for the second.

First: O=Cc1cc2c3c(ccc4c3c1CCC4)CCC2
Second: N#Cc1c[nH]c2cc(-c3ccccc3)sc2c1=O
The melting point of the first is lower: 102 to 105 °C for the first, greater than 300 °C for the second.

Compared with `C=CCN(CC=C)c1nc(N)n2oc(=O)nc2n1`, `CN1CC(Cc2ccccc2)OC1=O` (stereo not given) is lower in melting point: 211 to 213 °C for the first, 80 to 82 °C for the second.
